How the values were obtained:
Assay type in all cases: cell-based
TNFα = TNFα mRNA level by RT-PCR in TNFα-induced mouse splenocytes; details: TNFα 20 nM, peptide at 5 μM and 50 μM, 3 hours, compared to group not treated with the peptide
Method: In order to further confirm the anti-inflammatory effect of the peptide treatment of the present invention in addition to the results of Experimental Example <3-1>, inflammation was induced by treating mouse splenocytes with TNFα, and the expression levels of inflammatory cytokines TNFα and IL-1β, and Cox2, which is an inflammation-inducing marker, genes were confirmed. In order to induce inflammation, the cells were treated with cytokine TNFα, and since TNFα corresponds to a signaling protein associated with inflammation, IL-1β corresponds to a cytokine that promotes inflammation, and Cox2 is a protein associated with inflammation, the degree of inflammation can be confirmed by measuring the expression levels of TNFα, Cox2, and IL-1β genes.
Mouse splenocytes were dispensed into a 24-well plate at a concentration of 1× 10^7 cells/well and cultured until the next day. The medium was replaced with serum-free medium, and after 3 hours, the cells were treated with TNFα and the peptide of the present invention and then cultured for another 3 hours. In order to induce inflammation, the cells were treated with TNFα at 20 nM, and the peptide at 5 μM and 50 μM, respectively. […] After quantifying the amount of isolated RNA, cDNA was synthesized using a cDNA synthesis kit (Intron, Korea), PCR was performed using a PCR premix (Intron, Korea) and primers for TNFα, Cox2, and IL-1B. […]

IFNγ [1] = assay: IFNγ secretion by ELISA in LPS-induced mouse splenocytes; details: LPS 2 μg/mL, peptide at 5 μM and 50 μM, 24 hours
Method: Inflammation was induced in mouse splenocytes, and the secretion amounts of inflammatory cytokines TNFα, IL-1β, and IFNγ were confirmed. In order to induce inflammation, the cells were treated with an inflammation-inducing antigen, LPS, and since TNFα corresponds to a signaling protein associated with inflammation, IL-1β corresponds to a cytokine that promotes inflammation, and IFNγ also corresponds to a cytokine that promotes inflammation, the degree of inflammation can be confirmed by measuring the secretion amounts of TNFα, IL-1B, and IFNγ.
Mouse splenocytes were dispensed into a 24-well plate at a concentration of 1×10^7 cells/well and cultured until the next day. The medium was replaced with serum-free medium, and after 4 hours, the cells were treated with LPS and the peptide of the present invention and then cultured again for another 24 hours. In order to induce inflammation, the cells were treated with LPS at 2 μg/mL, and the peptide at 5 μM and 50 μM, respectively. […]

IL-1β = IL-1β secretion by ELISA in TNFα-induced mouse splenocytes; details: TNFα 20 nM, 24 hours
Method: Inflammation was induced by treating mouse splenocytes with the inflammatory cytokine TNFα, and the secretion amounts of the inflammatory cytokines IL-17, IL-1B, and IFNγ were confirmed. IL-17 corresponds to a pro-inflammatory cytokine, and the descriptions of IL-1β and IFNγ are the same as above.
Mouse splenocytes were dispensed into a 24-well plate at a concentration of 1×10^7 cells/well and cultured until the next day. The medium was replaced with serum-free medium, and after 4 hours, the cells were treated with TNFα and the peptide of the present invention and then cultured again for another 24 hours. In order to induce inflammation, the cells were treated with TNFα at 20 nM, and the peptide at 5 μM and 50 μM, respectively. The mouse splenocytes in the group in which inflammation was not induced due to untreatment with TNFα (NON); the negative control group in which the cells were treated with TNFα but not treated with the peptide (NC); and the group in which the cells were treated with TNFα along with the peptide of the present invention at the same concentration as above, respectively, were reacted as described above and the cell cultures were recovered. […]

IFNγ [2] = assay: IFNγ secretion by ELISA in mouse splenocytes induced with LPS, TGFβ and IL-23; details: LPS 2 μg/mL, TGFβ 20 ng/ml, IL-23 20 ng/mL, 24 hours
Text: Inflammation was induced by treating mouse splenocytes with LPS, which is an inflammation-inducing antigen, and TGFβ and IL-23, which are inflammatory cytokines, and the secretion amounts of the inflammatory cytokines IL-17, IL-1β, and IFNγ were confirmed. The descriptions of IL-17, IL-1B, and IFNγ are the same as above.
Mouse splenocytes were dispensed into a 24-well plate at a concentration of 1×10^7 cells/well and cultured until the next day. The medium was replaced with serum-free medium, and after 4 hours, the cells were treated with LPS, TGFβ, and IL-23 and the peptide of the present invention and then cultured again for another 24 hours. In order to induce inflammation, the cells were treated with LPS at 2 μg/mL, TGFβ at 20 ng/ml, IL-23 at 20 ng/mL, and the peptide at 5 μM and 50 μM, respectively. The mouse splenocytes in the group in which inflammation was not induced due to untreatment with LPS, TGFβ, and IL-23 (NON); the negative control group in which the cells were treated with LPS, TGFβ, and IL-23 but not treated with the peptide (NC); and the group in which the cells were treated with LPS, TGFβ, and IL-23 along with the peptide of the present invention at the same concentration as above, respectively, were reacted as described above and the cell cultures were recovered. […]

TWNS [peptide of the present invention]
decreased: mRNA expression level of TNFα (TNFα) | secretion amount of IFNγ (IFNγ [1]) | secretion amount of IL-1β (IL-1β; peptide at 5 μM) | secretion amount of IL-1β (IL-1β; peptide at 50 μM) | secretion amount of IFNγ (IFNγ [2]; peptide at 5 μM) | secretion amount of IFNγ (IFNγ [2]; peptide at 50 μM)

From patent US20250340590A1, “PEPTIDE HAVING ANTI-INFLAMMATORY ACTIVITY AND USE THEREOF” (CAREGEN CO., LTD., priority 2021, published 2025)
